Test results published in patent publication US10000793B2, “Method for enumeration of mammalian cell micronuclei, while distinguishing chromatin of dead and dying cells” (priority 2004, dated 2018).
Where a name gives a salt, the structure may show the parent alone. Read-outs that look alike come from different tables or passages of the source.

How the values were obtained:
L5178Y cells [1] = assay: In vitro micronucleus test, flow cytometric (EMA/SYTOX) and microscopy scoring, L5178Y cells
Method: L5178Y cells were treated over a range of chemical concentrations in culture medium, one 25 cm^2 flask per concentration. During treatment, cells were at 3×10^5/ml in a volume of 20 ml per flask (this high number of cells facilitated multiple readings per flask). After a 4 hr treatment period, cells were washed one time via centrifugation at 600×g, resuspended in a volume of 40 ml culture medium, and transferred to 75 cm^2 flasks. Cells were re-incubated at 37° C. for 20 additional hrs—the equivalent of two normal doubling times.
In this case, cultures (1.5×10^5 cells/ml, 40 ml/flask) were continuously exposed to chemical over a range of concentrations. Cells were harvested after 24 hrs of incubation at 37° C. without recovery.
At the time of cell harvest, FDA+ and PI+ cell counts were performed as described supra. […] Cells were collected via centrifugation at approximately 600×g for 5 minutes. Supernatants were aspirated, and cells were resuspended with gentle tapping. […] These tubes were placed in racks and submerged to a depth of approximately 2 cm in crushed ice. A visible light source (60 watt light bulb) was positioned approximately 30 cm above the tubes for 20 minutes.
After the photoactivation period, 800 μl cold buffer solution was added to each sample. From this point forward, exposure of samples to light was minimized with dim lighting and foil. The contents of the tubes were then transferred to 15 ml polypropylene centrifuge tubes, and 8 ml of cold buffer solution was added to each sample. Cells were collected via centrifugation, and supernatants aspirated such that approximately 50 μl of supernatant remained per tube. Cells were gently resuspended with tapping, and were maintained at room temperature until the follow procedures were initiated (within 30 minutes). 1 ml “Lysis Solution 1” was added slowly to each tube (approximately 15 seconds per sample). […] Upon addition of Lysis Solution 1, the tube was immediately vortexed (medium setting) for 5 seconds. These samples were kept at room temperature for 1 hr. At this time, 1 ml “Lysis Solution 2” was injected forcefully into each tube, which were immediately vortexed (medium) for 5 seconds. […] These specimens were maintained at room temperature for 30 minutes. Subsequently, samples were stored at 4° C. until flow cytometric analysis (up to two days following cell harvest/staining/lysis procedures).
(§1) Samples, stored for up to two days at 4° C., were gently tapped to resuspend the particles. Data acquisition and analysis was then accomplished with a single-laser flow cytometer, 488 nm excitation (FACSCalibur, BD Biosciences, San Jose, Calif.). Instrumentation settings and data acquisition/analysis were controlled with CellQuest software v3.3 (BD Biosciences). SYTOX-associated fluorescence emission was collected in the FL1 channel (530/30 band-pass filter), and EMA-associated fluorescence was collected in the FL3 channel (670 long-pass filter). Events were triggered on FL1 fluorescence. The FCM gating strategy that was developed for this micronuclei scoring application required events to meet each of six separate criteria before they were scored as nuclei or micronuclei (see FIGS. 2A-H). The incidence of flow cytometric-scored micronuclei is expressed as frequency percent (no. micronuclei/no. nuclei×100), and are based on the acquisition of 20,000 EMA-negative nuclei per specimen.
Approximately 3.5×10^6 cells per culture were centrifuged and resuspended with 20 μl heat-inactivated fetal bovine serum. 5 μl aliquots were applied to glass slides. Air dried slides were submerged in absolute methanol for 10 minutes and then stored in the dark until staining and analysis. […] An Olympus BH-2 fluorescence microscope was used for micronuclei measurements at 400× magnification. For each treated culture, 2000 mononucleated, non-apoptotic, non-necrotic cells were analyzed for the presence of micronuclei (1000 cells×2 slides per culture).

L5178Y cells [2] = system: L5178Y cells
Method: Once L5178Y or CHO-K1 cells were collected as described above, cytotoxicity measurements were performed as follows: 0.5 ml of each culture was added to flow cytometry tubes containing fluorescein diacetate (“FDA”) (0.075 μg/ml), propidium iodide (“PI”) (25 μg/ml), and 2.5 μm Carmine 580/620 microspheres (Molecular Probes, Eugene, Oreg.). The concentration of these “counting beads” was determined with a hemacytometer. […] Relative survival was then calculated as follows: The number of FDA+ cells in each chemical treatment culture was expressed as a percentage of the number of FDA+ cells in the concurrent solvent control culture.

L5178Y cells [3] = system: L5178Y cells; remark: listed apart in the source
Method: as §1
That is, by displaying the SYTOX-associated signal as fluorescence area (FL1-A), qualitative assessments of cell cycle-related effects were possible. […] Note that while these observations are presented in a qualitative manner, software packages are available which are capable of deconvoluting such histograms to provide quantitative assessment of cell cycle effects.

CHO-K1 cells = assay: In vitro micronucleus test, flow cytometric and microscopy scoring, CHO-K1 cells; type: cell-based, Chinese hamster; conditions: 4 hr treatment, 20 hr recovery, 0-40 μg/ml, FIG. 8
Method: On the day before treatment, CHO-K1 cells were harvested and counted, and their density was adjusted to 6×10^4/ml in culture medium. This cell suspension was added to 75 cm^2 flasks (20 ml per flask; one flask per exposure group). After incubating for approximately 16 to 24 hrs at 37° C., spent culture medium was replaced with 20 ml fresh, pre-warmed medium per flask. Methyl methanesulfonate was added from 1000× strength stock solutions for final concentrations of 0, 10, 20, 30, and 40 μg/ml, at which time cultures where reincubated at 37° C. After a 4 hr treatment period, culture medium was aspirated, cells were rinsed one time with an isotonic salt solution, and then 20 ml fresh, pre-warmed culture medium was added to each flask. These cultures were reincubated for a 20 hr recovery period. At the time of cell harvest, 2.5 ml typsin/EDTA solution per flask was used to detach cells from culture vessels. Cells were collected via centrifugation and responded in culture medium.
(§2) Events were triggered on FL1 fluorescence.
5 μl aliquots were applied to glass slides.

L5178Y cells [4] = assay: Cytotoxicity, % EMA-positive events by flow cytometry; type: cell-based
From the text: as §2
In addition to supplying genotoxicity and cell cycle information, these flow cytometric analyses were capable of concurrently providing a measure of cytotoxicity. Specifically, the frequency of EMA-positive events is a statistic that relates to membrane integrity. […] This statistic could be useful for helping to identify chemical concentrations that are too cytotoxic for reliable genotoxicity assessment.

SMILES | MN Induction (≥3-fold) (L5178Y cells [1]) | Cell Cycle Effect (L5178Y cells [3]) | other results
O=P1(N(CCCl)CCCl)NCCCO1 (centres unmarked) [Cyclophosphamide monohydrate] |  |  | MN Induction (≥3-fold) (L5178Y cells [1]; L5178Y cells, treatment/recovery 4/20 hrs, benzo[a]pyrene and cyclophosphamide with 10% v/v metabolic activation system): Yes
C[C@@H]1C[C@H]2[C@@H]3CCC4=CC(=O)C=C[C@]4(C)[C@@]3(F)[C@@H](O)C[C@]2(C)[C@@]1(O)C(=O)CO [Dexamethasone] | No | − | changes in % micronuclei (L5178Y cells [1]): Nil to slight changes; increase in % micronuclei relative to solvent control (L5178Y cells [1]; mouse): less than 3 fold; cell survival (L5178Y cells [2]): significantly affected cell survival
NC(=O)NO [Hydroxyurea] | Yes | +++ | 
COS(C)(=O)=O [Methyl methanesulfonate] | Yes | +++ | micronucleus frequency (CHO-K1 cells): dose-related increase
OC[C@H]1O[C@@](CO)(O[C@H]2O[C@H](CO)[C@@H](O)[C@H](O)[C@H]2O)[C@@H](O)[C@@H]1O [Sucrose] |  | − | micronucleus-induction (L5178Y cells [1]; L5178Y cells, continuous-treatment exposure (24 hr)): not evident; % EMA-positive events (L5178Y cells [4]): non-cytotoxic
CC[C@]1(O)C[C@@H]2CN(CCc3c([nH]c4ccccc34)[C@@](C(=O)OC)(c3cc4c(cc3OC)N(C)[C@H]3[C@@](O)(C(=O)OC)[C@H](OC(C)=O)[C@]5(CC)C=CCN6CC[C@]43[C@@H]65)C2)C1 [Vinblastine sulfate] | Yes | +++ | micronucleus response, continuous 24 hr exposure versus short-term treatment (L5178Y cells [1]): greater
